We go through 15 compounds from US20260092061A1, “COMPOUNDS FOR TARGETED PROTEIN DEGRADATION” (Amphista Therapeutics Limited, priority 2022, published 2026).

The target of this assay is T1, BRD9 (Homo sapiens, UniProt Q9H8M2).
T1 sequence (Q9H8M2 1-597): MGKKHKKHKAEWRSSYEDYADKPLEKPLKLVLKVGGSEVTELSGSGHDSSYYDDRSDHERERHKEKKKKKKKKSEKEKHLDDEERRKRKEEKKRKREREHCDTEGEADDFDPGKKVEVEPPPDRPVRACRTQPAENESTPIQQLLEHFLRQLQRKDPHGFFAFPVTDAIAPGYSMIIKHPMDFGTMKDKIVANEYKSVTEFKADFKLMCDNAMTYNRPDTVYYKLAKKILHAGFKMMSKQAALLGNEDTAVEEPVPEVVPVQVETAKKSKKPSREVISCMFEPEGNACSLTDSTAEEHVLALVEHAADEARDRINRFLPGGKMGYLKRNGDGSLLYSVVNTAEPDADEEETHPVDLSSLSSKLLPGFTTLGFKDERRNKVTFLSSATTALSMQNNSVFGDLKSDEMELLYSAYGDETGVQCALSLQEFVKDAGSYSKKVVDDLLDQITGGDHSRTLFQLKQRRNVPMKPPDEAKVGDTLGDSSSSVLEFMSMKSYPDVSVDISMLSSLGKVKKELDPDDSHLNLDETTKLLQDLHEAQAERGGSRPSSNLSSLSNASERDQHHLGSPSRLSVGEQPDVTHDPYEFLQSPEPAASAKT
The assay is described as follows: Degradation of BRD9 (IF), immunofluorescence in MV4-11 cells, 24 hours (Assay Protocol 2). It is filed as cell-based. Further details: A suspension of MV4-11 cells (ATCC CRL-9591) was prepared; host or cells: MV4-11. The settings on record: BRD9 degradation; for DC50: Assay protocol 2, read-out: DC50; for Dmax: MV4-11, Assay protocol 2, read-out: Dmax. In outline:
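% BRD9 remaining, scaled between DMSO (high) and 100 nM CFT-8634 (low) control wells, derives from mean Alexa 647 contrast in central nuclei by high-content imaging. MV4-11 cells had 24 h compound exposure at 37° C. before PFA fixation, Triton permeabilisation and anti-BRD9 E4Q3F immunostaining.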

What is called DC50 is the midpoint of the concentration-degradation curve. By Dmax is commonly meant the largest share of the target that was removed. Turning to `COc1cc(-c2cn(C)c(=O)c(C)c2C)cc(OC)c1CN1CCN(Cc2cccc3c2CCN(C(=O)/C(C#N)=C/C(C)(C)C)[C@@H]3C(C)C)C2(CC2)C1` (single isomer, unassigned) [Compound C79, (E/Z)-2-(5-((7-(2,6-dimethoxy-4-(1,4,5-trimethyl-6-oxo-1,6-dihydropyridin-3-yl)benzyl)-4,7-diazaspiro[2.5]octan-4-yl)methyl)-1-isopropyl-1,2,3,4-tetrahydroisoquinoline-2-carbonyl)-4,4-dimethylpent-2-enenitrile], the 50% degradation concentration (DC50) is 25 to 1000 nM and the Dmax is 40 to 70%.
Take `COc1cc(-c2cn(C)c(=O)c(C)c2C)cc(OC)c1CN1CCN(Cc2cccc3c2CCN(C(=O)/C(C#N)=C/C(C)(C)C)[C@H]3C(C)C)CC12CC2` (single isomer, unassigned) [Compound C81, (E/Z)-2-(5-((4-(2,6-dimethoxy-4-(1,4,5-trimethyl-6-oxo-1,6-dihydropyridin-3-yl)benzyl)-4,7-diazaspiro[2.5]octan-7-yl)methyl)-1-isopropyl-1,2,3,4-tetrahydroisoquinoline-2-carbonyl)-4,4-dimethylpent-2-enenitrile]: the DC50 lay within 1.25 to 10 nM and the Dmax was > 75%.
As for `COc1cc(-c2cn(C)c(=O)c(C)c2C)cc(OC)c1CN1CCN(Cc2cccc3c2CCN(C(=O)/C(C#N)=C/C(C)(C)C)[C@@H]3C(C)C)CC12CC2` (single isomer, unassigned) [Compound C82, (E/Z)-2-(5-((4-(2,6-dimethoxy-4-(1,4,5-trimethyl-6-oxo-1,6-dihydropyridin-3-yl)benzyl)-4,7-diazaspiro[2.5]octan-7-yl)methyl)-1-isopropyl-1,2,3,4-tetrahydroisoquinoline-2-carbonyl)-4,4-dimethylpent-2-enenitrile], the DC50 lay within 25 to 1000 nM and the Dmax is 40 to 70%.
For `COc1cc(-c2cn(C)c(=O)c(C)c2C)ccc1OC1CCC(Cc2cccc3c2CCN(C(=O)C(C#N)=CC(C)(C)N2CCN(C4COC4)CC2)C3C(C)C)CC1` (single isomer, unassigned) [Compound C86], the DC50 is 25 to 1000 nM and the Dmax is > 75%.
Regarding `COc1cc(-c2cn(C)c(=O)c(C)c2C)cc(OC)c1CN1CCN(Cc2ccc3c(c2)[C@H](C(C)C)N(C(=O)/C(C#N)=C/C(C)(C)C)CC3)C2(CC2)C1` (single isomer, unassigned) [Compound C87, (E/Z)-2-(7-((7-(2,6-dimethoxy-4-(1,4,5-trimethyl-6-oxo-1,6-dihydropyridin-3-yl)benzyl)-4,7-diazaspiro[2.5]octan-4-yl)methyl)-1-isopropyl-1,2,3,4-tetrahydroisoquinoline-2-carbonyl)-4,4-dimethylpent-2-enenitrile], the DC50 was 10 to 25 nM and the Dmax fell in the range of 70 to 75%.
For the compound `COc1cc(-c2cn(C)c(=O)c(C)c2C)cc(OC)c1CN1CCN(Cc2ccc3c(c2)[C@@H](C(C)C)N(C(=O)/C(C#N)=C/C(C)(C)C)CC3)C2(CC2)C1` (single isomer, unassigned) [Compound C88, (E/Z)-2-(7-((7-(2,6-dimethoxy-4-(1,4,5-trimethyl-6-oxo-1,6-dihydropyridin-3-yl)benzyl)-4,7-diazaspiro[2.5]octan-4-yl)methyl)-1-isopropyl-1,2,3,4-tetrahydroisoquinoline-2-carbonyl)-4,4-dimethylpent-2-enenitrile], the DC50 is 25 to 1000 nM and the Dmax fell in the range of 40 to 70%.
Consider `COc1cc(-c2cn(C)c(=O)c(C)c2C)cc(OC)c1CN(C)Cc1ccc2c(c1)[C@@H](C(C)C)N(C(=O)/C(C#N)=C/C(C)(C)C)CC2` (single isomer, unassigned) [Compound C89], for which the DC50 is 10 to 25 nM and the Dmax fell in the range of 40 to 70%.
Take `CC[C@H]1c2cccc(CN3CCN(Cc4c(OC)cc(-c5cn(C)c(=O)c(C)c5C)cc4OC)C4(CC4)C3)c2CCN1C(=O)/C(C#N)=C/C(C)(C)C` (single isomer, unassigned) [Compound C90, (E/Z)-2-(5-((4-(2,6-dimethoxy-4-(1,4,5-trimethyl-6-oxo-1,6-dihydropyridin-3-yl)benzyl)-4,7-diazaspiro[2.5]octan-7-yl)methyl)-1-ethyl-1,2,3,4-tetrahydroisoquinoline-2-carbonyl)-4,4-dimethylpent-2-enenitrile]: the DC50 is > 1000 nM and the Dmax lay in the range of 40 to 70%.
As to `CC[C@@H]1c2cccc(CN3CCN(Cc4c(OC)cc(-c5cn(C)c(=O)c(C)c5C)cc4OC)C4(CC4)C3)c2CCN1C(=O)/C(C#N)=C/C(C)(C)C` (single isomer, unassigned) [Compound C91, (E/Z)-2-(5-((4-(2,6-dimethoxy-4-(1,4,5-trimethyl-6-oxo-1,6-dihydropyridin-3-yl)benzyl)-4,7-diazaspiro[2.5]octan-7-yl)methyl)-1-ethyl-1,2,3,4-tetrahydroisoquinoline-2-carbonyl)-4,4-dimethylpent-2-enenitrile], the DC50 is < 1.25 nM and the Dmax is > 75%.
For `CC[C@H]1c2cccc(CN3CCN(Cc4c(OC)cc(-c5cn(C)c(=O)c(C)c5C)cc4OC)CC34CC4)c2CCN1C(=O)/C(C#N)=C/C(C)(C)CF` (single isomer, unassigned) [Compound C92, (E/Z)-2-(5-((7-(2,6-dimethoxy-4-(1,4,5-trimethyl-6-oxo-1,6-dihydropyridin-3-yl)benzyl)-4,7-diazaspiro[2.5]octan-4-yl)methyl)-1-ethyl-1,2,3,4-tetrahydroisoquinoline-2-carbonyl)-5-fluoro-4,4-dimethylpent-2-enenitrile], the Dmax lay within 40 to 70%.
Consider `CC[C@@H]1c2cccc(CN3CCN(Cc4c(OC)cc(-c5cn(C)c(=O)c(C)c5C)cc4OC)CC34CC4)c2CCN1C(=O)/C(C#N)=C/C(C)(C)CF` (single isomer, unassigned) [Compound C93, (E/Z)-2-(5-((7-(2,6-dimethoxy-4-(1,4,5-trimethyl-6-oxo-1,6-dihydropyridin-3-yl)benzyl)-4,7-diazaspiro[2.5]octan-4-yl)methyl)-1-ethyl-1,2,3,4-tetrahydroisoquinoline-2-carbonyl)-5-fluoro-4,4-dimethylpent-2-enenitrile], for which the DC50 is < 1.25 nM and the Dmax is > 75%.
For `CCC1c2cccc(CN3CCN(Cc4c(OC)cc(-c5cn(C)c(=O)c(C)c5C)cc4OC)CC34CC4)c2CCN1C(=O)/C(C#N)=C/C(C)(C)C` (single isomer, unassigned) [Compound C94, (E/Z)-2-(5-((7-(2,6-dimethoxy-4-(1,4,5-trimethyl-6-oxo-1,6-dihydropyridin-3-yl)benzyl)-4,7-diazaspiro[2.5]octan-4-yl)methyl)-1-ethyl-1,2,3,4-tetrahydroisoquinoline-2-carbonyl)-4,4-dimethylpent-2-enenitrile], the DC50 was < 1.25 nM and the Dmax is > 75%.
With `COc1cc(-c2cn(C)c(=O)c(C)c2C)cc(OC)c1CN1CCN(Cc2ccc3c(c2)[C@H](C(C)C)N(C(=O)/C(C#N)=C/C(C)(C)CF)CC3)C2(CC2)C1` (single isomer, unassigned) [Compound C96, (E/Z)-2-(7-((7-(2,6-dimethoxy-4-(1,4,5-trimethyl-6-oxo-1,6-dihydropyridin-3-yl)benzyl)-4,7-diazaspiro[2.5]octan-4-yl)methyl)-1-isopropyl-1,2,3,4-tetrahydroisoquinoline-2-carbonyl)-5-fluoro 4,4-dimethylpent-2-enenitrile], the DC50 fell in the range of 1.25 to 10 nM and the Dmax was > 75%.
With `COc1cc(-c2cn(C)c(=O)c(C)c2C)cc(OC)c1CN1CCN(Cc2ccc3c(c2)[C@@H](C(C)C)N(C(=O)/C(C#N)=C/C(C)(C)CF)CC3)C2(CC2)C1` (single isomer, unassigned) [Compound C97, (E/Z)-2-(7-((7-(2,6-dimethoxy-4-(1,4,5-trimethyl-6-oxo-1,6-dihydropyridin-3-yl)benzyl)-4,7-diazaspiro[2.5]octan-4-yl)methyl)-1-isopropyl-1,2,3,4-tetrahydroisoquinoline-2-carbonyl)-5-fluoro 4,4-dimethylpent-2-enenitrile], the DC50 fell in the range of 10 to 25 nM and the Dmax lay within 70 to 75%.
Taken in the same sequence, the figures for `COc1cc(-c2cn(C)c(=O)c(C)c2C)cc(OC)c1CN1CCN(Cc2cccc3c2CCN(C(=O)/C(C#N)=C/C(C)(C)C)[C@H]3C2CC2)C2(CC2)C1` (single isomer, unassigned) [Compound C99, (E/Z)-2-(1-cyclopropyl-5-((7-(2,6-dimethoxy-4-(1,4,5-trimethyl-6-oxo-1,6-dihydropyridin-3-yl)benzyl)-4,7-diazaspiro[2.5]octan-4-yl)methyl)-1,2,3,4-tetrahydroisoquinoline-2-carbonyl)-4,4-dimethylpent-2-enenitrile] were < 1.25 nM and > 75%.
